Measurements published in PubChem BioAssay AID248 (DTP/NCI, 2004).
Where “and” joins values, the source holds several entries; their conditions need not be identical. Identical values can stand only once. Toxic doses and inconclusive results are not listed. Cut-off read from the data, not from the text of the source: active = T/C of 150% or more; inactive = T/C below 125%.

Tested on: L1210 leukemia ip in BDF1 mice, survival T/C
Assay: NCI In Vivo Anticancer Drug Screen. Data for tumor model L1210 Leukemia (intraperitoneal) in B6D2F1 (BDF1) mice
Settings: endpoint: mean survival time, higher = longer survival
Method in brief: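 Antitumor effect is assessed in tumor-bearing animals. Survival in the compound arm is compared with a vehicle-dosed control arm and expressed as their quotient.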

[1] = dose: 100.0 mg/kg/injection, schedule: Q04DX003 (ip), vehicle: Klucel (hydroxypropylcellulose) (HPC)
[2] = dose: 200.0 mg/kg/injection, schedule: Q04DX003 (ip), vehicle: Klucel (hydroxypropylcellulose) (HPC)
[3] = dose: 400.0 mg/kg/injection, schedule: Q04DX003 (ip), vehicle: Klucel (hydroxypropylcellulose) (HPC)
[4] = dose: 100.0 mg/kg/injection, schedule: Q04DX003 (ip), vehicle: saline
[5] = dose: 200.0 mg/kg/injection, schedule: Q04DX003 (ip), vehicle: saline
[6] = dose: 400.0 mg/kg/injection, schedule: Q04DX003 (ip), vehicle: saline

Measured: T/C

N#CCC(CC#N)C(c1cccc2ccccc12)c1cccc2ccccc12
inactive: dose: 75.0 mg/kg/injection, schedule: Q04DX002 (ip), vehicle: Klucel (hydroxypropylcellulose) (HPC) 94 % of control | dose: 150.0 mg/kg/injection, schedule: Q04DX002 (ip), vehicle: Klucel (hydroxypropylcellulose) (HPC) 101 % of control | dose: 300.0 mg/kg/injection, schedule: Q04DX002 (ip), vehicle: Klucel (hydroxypropylcellulose) (HPC) 90 % of control

CCCCC#CC(=O)OC
inactive: dose: 75.0 mg/kg/injection, schedule: Q01DX001 (ip), vehicle: other 106 % of control | dose: 150.0 mg/kg/injection, schedule: Q01DX001 (ip), vehicle: other 97 % of control | dose: 300.0 mg/kg/injection, schedule: Q01DX001 (ip), vehicle: other 101 % of control

O=S(=O)(Nc1ccccc1)c1ccccc1
inactive: [1] 98 % of control | [2] 107 % of control | [3] 98 % of control

COC(=O)C1=COC(C)C2CN3CCc4c([nH]c5ccccc45)C3CC12 (configuration not stated)
inactive: dose: 25.0 mg/kg/injection, schedule: Q04DX003 (ip), vehicle: Klucel (hydroxypropylcellulose) (HPC) 96 % of control | dose: 50.0 mg/kg/injection, schedule: Q04DX003 (ip), vehicle: Klucel (hydroxypropylcellulose) (HPC) 98 % of control | dose: 100.0 mg/kg/injection, schedule: Q04DX002 (ip), vehicle: Klucel (hydroxypropylcellulose) (HPC) 98 % of control and 95 % of control | [1] 98 % of control | dose: 200.0 mg/kg/injection, schedule: Q04DX002 (ip), vehicle: Klucel (hydroxypropylcellulose) (HPC) 91 % of control and 102 % of control | [2] 95 % of control | dose: 400.0 mg/kg/injection, schedule: Q04DX002 (ip), vehicle: Klucel (hydroxypropylcellulose) (HPC) 87 % of control and 106 % of control | [3] 100 % of control

COc1ccc(CC2Cc3cc(OC)c(OC)cc3C=N2)cc1OC (configuration not stated)
inactive: dose: 100.0 mg/kg/injection, schedule: Q01DX009 (ip), vehicle: saline 100 % of control | [4] 98 % of control | dose: 200.0 mg/kg/injection, schedule: Q01DX009 (ip), vehicle: saline 100 % of control | [5] 93 % of control | [6] 91 % of control

Clc1ncnc2c1nnn2/N=C/c1ccccc1
inactive: dose: 15.0 mg/kg/injection, schedule: Q01DX Z (ip), vehicle: carboxymethylcellulose (CMC) 95 % of control | dose: 20.0 mg/kg/injection, schedule: Q01DX Z (ip), vehicle: carboxymethylcellulose (CMC) 91 % of control

O=C1CCCCC(=O)CCCC1
inactive: dose: 100.0 mg/kg/injection, schedule: Q01DX001 (ip), vehicle: saline 102 % of control | dose: 200.0 mg/kg/injection, schedule: Q01DX001 (ip), vehicle: saline 100 % of control | dose: 400.0 mg/kg/injection, schedule: Q01DX001 (ip), vehicle: saline 105 % of control

CCC(C)NC(C)=O (configuration not stated)
inactive: [4] 115 % of control | [5] 97 % of control | [6] 110 % of control

CCN(CC)CC(O)CNc1ccnc2cc(Cl)ccc12 (configuration not stated)
inactive: dose: 25.0 mg/kg/injection, schedule: Q01DX009 (ip), vehicle: saline with Tween-80 97 % of control | dose: 50.0 mg/kg/injection, schedule: Q01DX009 (ip), vehicle: saline with Tween-80 86 % of control | dose: 100.0 mg/kg/injection, schedule: Q01DX009 (ip), vehicle: saline with Tween-80 97 % of control

CC(C)N1CCc2cc3c(cc2C1)OCO3
inactive: dose: 5.0 mg/kg/injection, schedule: Q01DX001 (ip), vehicle: saline 101 % of control | dose: 10.0 mg/kg/injection, schedule: Q01DX001 (ip), vehicle: saline 101 % of control | dose: 20.0 mg/kg/injection, schedule: Q01DX001 (ip), vehicle: saline 110 % of control | dose: 40.0 mg/kg/injection, schedule: Q01DX001 (ip), vehicle: saline 104 % of control | dose: 80.0 mg/kg/injection, schedule: Q01DX001 (ip), vehicle: saline 101 % of control

O=C(NC(=S)Nc1ccccn1)c1ccccc1
inactive: dose: 25.0 mg/kg/injection, schedule: Q04DX002 (ip), vehicle: other 102 % of control | dose: 50.0 mg/kg/injection, schedule: Q04DX002 (ip), vehicle: other 100 % of control | dose: 100.0 mg/kg/injection, schedule: Q04DX002 (ip), vehicle: other 105 % of control | dose: 200.0 mg/kg/injection, schedule: Q04DX002 (ip), vehicle: other 86 % of control
